Earlier results on two compounds are cited in patent publication US11591275B2, “Smart release potash fertilizer granules” (RYNAN TECHNOLOGIES PTE LTD, priority 2018, dated 2023).

The structures appear in SMILES notation.

The conditions of this data set: for pKa: of the organic acid in the extended release layer.

Regarding `O=C(O)C(=O)O` [Oxalic Acid], the pKa (commonly the negative logarithm of the acid dissociation constant) is given as 4.10.

For the compound `O=C(O)Cc1cccc2ccccc12` [1-Naphthalene Acetic Acid, 1-Naphthalene acetic acid], the pKa is reported as 4.23. The “pKa* of associated acids” value (acid associated with the anion pendant group of the anti-caking copolymer) is 4.23.
